From ChEMBL document CHEMBL1141938 (Bioorg Med Chem Lett, 2005) come the findings set out here.

Data set [1] concerns the target Human immunodeficiency virus type 1 protease (Human immunodeficiency virus 1, UniProt Q72874).
Description: Inhibitory activity against HIV protease
Data set [2] deals with Human immunodeficiency virus. Nature of the data set: Antiviral activity against mutant HIV isolate K-60C. The class given is functional. The conditions noted are these: Human immunodeficiency virus 1, K-60; read-out: CIC95.
Data set [3] concerns Human immunodeficiency virus. Nature of the data set: Antiviral activity in MT4 human T lymphoid cells infected with wild type NL4-3 HIV. The settings on record: Human immunodeficiency virus 1, NL4-3, MT4; read-out: CIC95. Type of data set: functional.
The test system of data set [4] is Human immunodeficiency virus. Nature of the data set: Antiviral activity against 4X HIV strain. Type of data set: functional. The conditions noted are these: Human immunodeficiency virus 1, 4X; read-out: CIC95.
In data set [5] the test system is Human immunodeficiency virus. Nature of the data set: Antiviral activity against mutant HIV isolate V-18C. The class given is functional. The settings on record: Human immunodeficiency virus 1, V-18C; read-out: CIC95.
Data set [6] deals with Human immunodeficiency virus. Nature of the data set: Antiviral activity against mutant HIV isolate Q-60C. The class given is functional. The settings on record: Human immunodeficiency virus 1, Q-60C; read-out: CIC95.
Data set [7] is described as follows: Oral bioavailability in dog at 10 mg/kg, po. Type of data set: ADME, organism-based, Canis lupus familiaris. The settings on record: in vivo.
A short description of data set [8]: Half life in rat at 10 mg/kg, po. The settings on record: in vivo. The class given is ADME, organism-based. More on the design: dose 10 mg/kg, route oral.
Data set [9] can be described thus: Plasma clearance in dog at 10 mg/kg, po. Type of data set: ADME, organism-based, Canis lupus familiaris. More on the design: dose 10 mg/kg, route oral.
The target in another data set is Cytochrome P450 2C9 (Homo sapiens, UniProt P11712). Nature of the data set: Inhibitory activity against CYP2C9. Type of data set: ADME.
Data set [10] is described as follows: Cmax in rat at 10 mg/kg, po. More on the design: dose 10 mg/kg, route oral. The settings on record: in vivo. Type of data set: ADME, organism-based.
A further data set relates to Canis familiaris. Nature of the data set: AUC in dog at 10 mg/kg, po. Type of data set: ADME, organism-based, Canis lupus familiaris, Plasma. More on the design: dose 10 mg/kg, route oral. The conditions noted are these: in vivo.
Data set [11] can be described thus: Half life in dog at 10 mg/kg, po. Type of data set: ADME, organism-based, Canis lupus familiaris. The settings on record: in vivo. More on the design: dose 10 mg/kg, route oral.
Data set [12] deals with Rattus norvegicus. Nature of the data set: AUC in rat at 10 mg/kg, po. Type of data set: ADME, organism-based, Plasma. More on the design: dose 10 mg/kg, route oral. The settings on record: in vivo.
The nature of data set [13]: Cmax in dog at 10 mg/kg, po. The class given is ADME, organism-based, Canis lupus familiaris. The arrangement: dose 10 mg/kg, route oral. The conditions noted are these: in vivo.
A short description of data set [14]: Plasma clearance in rat at 10 mg/kg, po. Type of data set: ADME, organism-based. More on the design: dose 10 mg/kg, route oral.
For another data set, the target named is Cytochrome P450 3A4 (Homo sapiens, UniProt P08684). Nature of the data set: Inhibitory activity against CYP3A4. Type of data set: ADME.
Data set [15] can be described thus: Oral bioavailability in rat at 10 mg/kg, po. The settings on record: in vivo. The class given is ADME, organism-based.
A further data set deals with Cytochrome P450 2D6 (Homo sapiens, UniProt P10635). Nature of the data set: Inhibitory activity against CYP2D6. Type of data set: ADME.
Data set [16] deals with Rattus norvegicus. Nature of the data set: AUC in rat at 2 mg/kg, po. Type of data set: ADME, organism-based, Plasma. The arrangement: dose 2 mg/kg, route oral. The settings on record: in vivo.
The nature of data set [17]: Oral bioavailability in rat at 2 mg/kg, po. Type of data set: ADME, organism-based. The settings on record: in vivo.
Data set [18] can be described thus: Half life in rat at 2 mg/kg, po. Type of data set: ADME, organism-based. The arrangement: dose 2 mg/kg, route oral. The settings on record: in vivo.
Data set [19] is described as follows: Cmax in rat at 2 mg/kg, po. The class given is ADME, organism-based. The arrangement: dose 2 mg/kg, route oral. The settings on record: in vivo.
Data set [20] in a line: Plasma clearance in rat at 2 mg/kg, po. The class given is ADME, organism-based. More on the design: dose 2 mg/kg, route oral.

Chain of Cytochrome P450 2C9 (P11712 whole entry): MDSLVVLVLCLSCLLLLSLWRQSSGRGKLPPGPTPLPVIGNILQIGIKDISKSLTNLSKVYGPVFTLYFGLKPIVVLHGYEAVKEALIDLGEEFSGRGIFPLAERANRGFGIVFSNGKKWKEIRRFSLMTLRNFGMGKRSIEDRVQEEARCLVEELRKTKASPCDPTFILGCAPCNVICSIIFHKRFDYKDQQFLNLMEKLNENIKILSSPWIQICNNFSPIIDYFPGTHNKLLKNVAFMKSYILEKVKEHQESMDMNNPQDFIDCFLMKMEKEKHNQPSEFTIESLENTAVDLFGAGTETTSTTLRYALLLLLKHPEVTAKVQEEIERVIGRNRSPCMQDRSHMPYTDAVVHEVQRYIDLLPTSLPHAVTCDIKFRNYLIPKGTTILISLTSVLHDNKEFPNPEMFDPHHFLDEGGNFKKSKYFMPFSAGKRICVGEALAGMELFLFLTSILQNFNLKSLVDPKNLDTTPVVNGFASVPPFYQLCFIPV
Chain of Cytochrome P450 3A4 (P08684 whole entry): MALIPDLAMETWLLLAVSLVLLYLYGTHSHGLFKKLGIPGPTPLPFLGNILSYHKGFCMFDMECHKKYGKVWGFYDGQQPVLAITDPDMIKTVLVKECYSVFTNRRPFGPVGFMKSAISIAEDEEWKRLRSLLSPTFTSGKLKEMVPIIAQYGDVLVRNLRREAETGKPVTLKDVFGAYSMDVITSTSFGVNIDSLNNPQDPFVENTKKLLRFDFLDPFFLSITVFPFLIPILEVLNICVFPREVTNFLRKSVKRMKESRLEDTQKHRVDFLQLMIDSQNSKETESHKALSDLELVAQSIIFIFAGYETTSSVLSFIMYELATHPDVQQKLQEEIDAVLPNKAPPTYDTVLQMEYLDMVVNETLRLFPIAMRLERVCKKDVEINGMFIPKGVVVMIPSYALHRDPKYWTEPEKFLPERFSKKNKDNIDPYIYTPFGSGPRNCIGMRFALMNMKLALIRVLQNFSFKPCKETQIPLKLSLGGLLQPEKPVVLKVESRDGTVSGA
Chain of Cytochrome P450 2D6 (P10635 whole entry): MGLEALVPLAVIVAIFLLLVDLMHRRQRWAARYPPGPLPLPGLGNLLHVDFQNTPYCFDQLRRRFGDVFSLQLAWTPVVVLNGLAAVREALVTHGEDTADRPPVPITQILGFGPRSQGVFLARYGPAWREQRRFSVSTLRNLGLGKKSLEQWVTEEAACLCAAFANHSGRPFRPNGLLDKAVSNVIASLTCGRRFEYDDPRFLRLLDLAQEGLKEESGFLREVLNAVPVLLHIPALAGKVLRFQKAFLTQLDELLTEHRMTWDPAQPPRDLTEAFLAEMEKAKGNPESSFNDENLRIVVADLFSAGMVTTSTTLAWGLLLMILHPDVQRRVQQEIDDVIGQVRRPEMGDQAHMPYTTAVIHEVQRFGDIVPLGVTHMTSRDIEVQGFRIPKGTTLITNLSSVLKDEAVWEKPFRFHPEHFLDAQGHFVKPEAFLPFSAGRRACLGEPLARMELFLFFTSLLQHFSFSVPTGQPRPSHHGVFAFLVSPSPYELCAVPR

A word on the IC50: it is the concentration that inhibits the measured activity by half. A higher IC50 goes with lower potency. For the compound `Cc1ccncc1-c1ccc(C[C@H](C[C@H](O)CN2CCN(C(C)(C)c3ncc(-c4ccc(Cl)cc4)s3)C[C@H]2C(=O)NCC(F)(F)F)C(=O)N[C@H]2c3ccccc3OC[C@H]2O)o1`, the midpoint of inhibition in data set [1], the IC50, lay at 0.03 nM. Besides, the IC95 in [2] worked out at 15.6 nM; in data set [3], 15.6 nM; in [4], 31.3 nM; in data set [5], 250 nM; in data set [6], 31.3 nM.

As to `Cc1ccncc1-c1ccc(C[C@H](C[C@H](O)CN2CCN(Cc3ncc(-c4ccc(Cl)cc4)o3)C[C@H]2C(=O)NCC(F)(F)F)C(=O)N[C@H]2c3ccccc3OC[C@H]2O)o1`, in [1], the IC50 amounted to 0.03 nM. Besides, the IC95 in data set [2] was 15.6 nM; in data set [3], below 7.8 nM; in [4], 62.5 nM; in [5] it was 125 nM; in data set [6], 62.5 nM.

As a reminder, the bioavailability is dose-corrected exposure relative to a reference, in per cent. By half-life is commonly meant the time in which the quantity being followed falls by half. Read a high half-life as slow decline. The CL/F is clearance divided by bioavailability, as obtained after extravascular dosing. The Cmax is the highest concentration seen after dosing. For `CC(C)(c1ncc(-c2ccc(Cl)cc2)o1)N1CCN(C[C@@H](O)C[C@@H](Cc2cc3ccncc3o2)C(=O)N[C@H]2c3ccccc3OC[C@H]2O)[C@H](C(=O)NCC(F)(F)F)C1`, the bioavailability in data set [7] came out at 42%; in data set [15], 14%. Further, the half-life was 48 min in data set [8] and 60 min in data set [11]. Besides, the IC50 in data set [1] was 0.02 nM; on Cytochrome P450 2C9, below 1000 nM; at Cytochrome P450 3A4, below 1000 nM; against Cytochrome P450 2D6, below 1000 nM. For the same compound, the CL/F in data set [9] is 23 mL/min/kg; in data set [14], 98 mL/min/kg. Moreover, the Cmax was determined as 180 nM in [10] and 2100 nM in [13]. The IC95 in [2] was below 7.8 nM; in [3], below 7.8 nM; in [4], below 7.8 nM; in data set [5] it was 31 nM; in data set [6], below 7.8 nM. The figures for the AUC with Canis familiaris and in the data set on Rattus norvegicus [12] were 0.39 uMh and 0.29 uMh, respectively.

In data set [1], `O=C(N[C@H]1c2ccccc2OC[C@H]1O)[C@H](Cc1cc2cnccc2s1)C[C@H](O)CN1CCN(Cc2ccc(-c3ccc(Cl)cc3)s2)C[C@H]1C(=O)NCC(F)(F)F` registered an IC50 of 0.05 nM. Moreover, the IC95 was determined as 31.3 nM in data set [2]; 15.6 nM in data set [3]; 15.6 nM in data set [4]; 125 nM in data set [5]; 31.3 nM in data set [6].

Take `CC(C)(c1ncc(-c2ccc(Cl)cc2)s1)N1CCN(C[C@@H](O)C[C@@H](Cc2cc3cnccc3s2)C(=O)N[C@H]2c3ccccc3OC[C@H]2O)[C@H](C(=O)NCC(F)(F)F)C1`: 0.04 nM corresponded to half-maximal inhibition in data set [1] (IC50). Also, the IC95 in data set [2] is below 7.8 nM; in data set [3], below 7.8 nM; in data set [4] it was below 7.8 nM; in [5], 31.3 nM; in data set [6] it was below 7.8 nM.

In [1], `O=C(N[C@H]1c2ccccc2OC[C@H]1O)[C@H](Cc1cc2ccncc2o1)C[C@H](O)CN1CCN(Cc2ccc(-c3ccc(Cl)cc3)o2)C[C@H]1C(=O)NCC(F)(F)F` returned an IC50 of 0.05 nM. Further, the IC95 was below 7.8 nM in data set [2]; below 7.8 nM in [3]; 31.3 nM in data set [4]; 62.5 nM in data set [5]; 15.6 nM in data set [6].

Turning to `O=C(N[C@H]1c2ccccc2OC[C@H]1O)[C@H](Cc1cc2cnccc2s1)C[C@H](O)CN1CCN(Cc2csc(-c3ccc(C(F)(F)F)cc3)n2)C[C@H]1C(=O)NCC(F)(F)F`, the IC50 in data set [1] is 0.07 nM. Also, the IC95 in [2] amounted to 31.3 nM; in data set [3], 26 nM; in data set [4] it was 125 nM; in [5], 375 nM; in data set [6] it was 93.8 nM.

The compound `Cc1ccncc1-c1ccc(C[C@H](C[C@H](O)CN2CCN(Cc3ccc(-c4ccc(Cl)cc4)o3)C[C@H]2C(=O)NCC(F)(F)F)C(=O)N[C@H]2c3ccccc3OC[C@H]2O)o1` displayed an IC50 in data set [1] of 0.08 nM. Besides, the IC95 in [2] was below 7.8 nM; in data set [3], 15.6 nM; in [4], 31.3 nM; in [5], 125 nM; in data set [6] it was 62.5 nM.

For `CC(C)(C)NC(=O)[C@@H]1CN(Cc2cccnc2)CCN1C[C@@H](O)C[C@@H](Cc1ccccc1)C(=O)N[C@H]1c2ccccc2C[C@H]1O`, the IC95 is above 1000 nM in [2]; 50 nM in data set [3]; 400 nM in data set [4]; above 1000 nM in [5]; above 1000 nM in data set [6].

Consider `O=C(N[C@H]1c2ccccc2OC[C@H]1O)[C@H](Cc1cc2cnccc2s1)C[C@H](O)CN1CCN(Cc2ccc(-c3ccc(Cl)cc3)o2)C[C@H]1C(=O)NCC(F)(F)F`, for which half-maximal inhibition in data set [1] (IC50) was put at 0.03 nM. The IC95 in data set [2] is below 7.8 nM; in data set [3], 15.6 nM; in data set [4], 15.6 nM; in [5] it was 125 nM; in data set [6], 31.3 nM.

Consider `Cc1ccncc1-c1ccc(C[C@H](C[C@H](O)CN2CCN(Cc3ccc(-c4ccc(Cl)cc4)s3)C[C@H]2C(=O)NCC(F)(F)F)C(=O)N[C@H]2c3ccccc3OC[C@H]2O)o1`, for which the IC50 in [1] amounted to 0.04 nM. For the same compound, the IC95 was 125 nM in data set [2]; below 7.8 nM in data set [3]; 15.6 nM in [4]; 62.5 nM in data set [5]; 62.5 nM in data set [6].

For `CC(C)(c1ncc(-c2ccc(Cl)cc2)o1)N1CCN(C[C@@H](O)C[C@@H](Cc2cc3c(Cl)cncc3s2)C(=O)N[C@H]2c3ccccc3OC[C@H]2O)[C@H](C(=O)NCC(F)(F)F)C1`, the IC50 in data set [1] was below 0.02 nM. Also, the IC95 in data set [2] was below 7.8 nM; in [3], below 7.8 nM; in [4], below 7.8 nM; in data set [5], 15.6 nM; in data set [6], below 7.8 nM.

Take `CC(C)(c1ncc(-c2ccc(Cl)cc2)o1)N1CCN(C[C@@H](O)C[C@@H](Cc2cc3cnccc3s2)C(=O)N[C@H]2c3ccccc3OC[C@H]2O)[C@H](C(=O)NCC(F)(F)F)C1`: the IC50 in data set [1] was 0.02 nM; on Cytochrome P450 2C9, below 1000 nM; on Cytochrome P450 3A4, below 1000 nM; against Cytochrome P450 2D6, below 1000 nM. The same compound came in with an AUC with Rattus norvegicus [16] of 0.36 uMh. This compound also had a bioavailability in data set [17] of 7.3%. In data set [18], this compound gave a half-life of 48 min. Moreover, the IC95 in [2], in [3], in data set [4], in data set [5] and in data set [6] was below 7.8 nM each time. In [19], this compound had a Cmax of 52 nM. For the same compound, the CL/F in [20] is 111 mL/min/kg.

Consider `Cc1ccncc1-c1ccc(C[C@H](C[C@H](O)CN2CCN(Cc3csc(-c4ccc(F)cc4)n3)C[C@H]2C(=O)NCC(F)(F)F)C(=O)N[C@H]2c3ccccc3OC[C@H]2O)o1`, for which, in data set [1], inhibition was half-maximal at 0.11 nM (IC50). In addition, the IC95 in data set [2] was 125 nM; in data set [3], below 7.8 nM; in data set [4], 15.6 nM; in [5], 62.5 nM; in data set [6], 125 nM.

Regarding `CC(C)(c1ncc(-c2ccc(Cl)cc2)o1)N1CCN(C[C@@H](O)C[C@@H](Cc2cc3ccncc3s2)C(=O)N[C@H]2c3ccccc3OC[C@H]2O)[C@H](C(=O)NCC(F)(F)F)C1`, in data set [1], the IC50 is below 0.02 nM. Further, the IC95 in data set [2], in [3], in data set [4], in data set [5] and in [6] was below 7.8 nM in each case.
